Laboratory results taken from ChEMBL document CHEMBL1139320, “PEG-immobilization of cardol and soluble polymer-supported synthesis of some cardol-coumarin derivatives: preliminary evaluation of their inhibitory activity on mushroom tyrosinase” (Bioorg Med Chem Lett, 2009).

Molecular target: T1, Tyrosinase (Agaricus bisporus, UniProt O42713)
T1 sequence (O42713 whole entry): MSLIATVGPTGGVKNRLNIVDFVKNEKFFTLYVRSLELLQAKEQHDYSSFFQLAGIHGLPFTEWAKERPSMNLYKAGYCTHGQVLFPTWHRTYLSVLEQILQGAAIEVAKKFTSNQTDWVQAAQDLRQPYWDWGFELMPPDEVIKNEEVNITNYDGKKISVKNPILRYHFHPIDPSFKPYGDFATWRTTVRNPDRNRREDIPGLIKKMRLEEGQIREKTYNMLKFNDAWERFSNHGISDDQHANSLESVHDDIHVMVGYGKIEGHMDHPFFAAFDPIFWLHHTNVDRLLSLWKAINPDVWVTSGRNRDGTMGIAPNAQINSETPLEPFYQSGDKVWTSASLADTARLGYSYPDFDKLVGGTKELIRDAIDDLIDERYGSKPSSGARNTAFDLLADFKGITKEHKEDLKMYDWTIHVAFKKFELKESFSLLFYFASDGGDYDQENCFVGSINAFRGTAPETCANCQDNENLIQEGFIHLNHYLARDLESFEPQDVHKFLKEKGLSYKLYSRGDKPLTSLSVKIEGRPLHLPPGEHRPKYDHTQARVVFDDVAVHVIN
Description: Inhibition of mushroom tyrosine kinase assessed as oxidation of 0.25 mM L-3,4-dihydroxyphenylalanine

| Compound | IC50 |
| --- | --- |
| Oc1cccc(O)c1 [RESORCINOL] | 1440 µM |
| CCCCCCc1ccc(O)cc1O [HEXYLRESORCINOL] | 0.98 µM |
